IC50 data for 23 compounds are collected here from patent US20190194148A1, “TETRAZOLE-CONTAINING 1,2-CYCLOPROPANE-CARBOXAMIDES” (Bayer Pharma Aktiengesellschaft, priority 2017, published 2019).

For the assay, the target named is T1, human B1 receptor (Homo sapiens, UniProt P46663).
T1 construct: host or cells: CHO-K1
T1 sequence (P46663 1-353): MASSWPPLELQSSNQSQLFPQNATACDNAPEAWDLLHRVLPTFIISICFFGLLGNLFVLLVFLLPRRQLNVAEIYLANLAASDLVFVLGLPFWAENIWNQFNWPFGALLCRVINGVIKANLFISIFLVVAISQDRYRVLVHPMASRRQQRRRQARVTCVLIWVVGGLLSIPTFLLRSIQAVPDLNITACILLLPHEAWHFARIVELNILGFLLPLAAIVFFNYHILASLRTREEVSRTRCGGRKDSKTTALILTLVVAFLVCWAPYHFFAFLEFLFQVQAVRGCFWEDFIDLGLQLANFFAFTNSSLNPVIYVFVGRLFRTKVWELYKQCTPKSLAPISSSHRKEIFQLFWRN
Nature of the assay: Calcium flux assay (FLIPR) with recombinant CHO-K1 cells expressing human B1 receptor. Type of assay: cell-based. The method, then: The potency to inhibit the Bradykinin B1 receptors was determined for the example compounds of this invention in a cell-based fluorescent calcium-mobilisation assay. The assay measures the ability of example compounds to inhibit Bradykinin B1 receptor agonist-induced increase of intracellular free Ca^2+ in the cell line expressing B1 receptor. Specifically, calcium indicator-loaded cells are pre-incubated in the absence or presence of different concentrations of example compounds followed by the stimulation with a selective B1 receptor agonist peptide. The change of the intracellular Ca^2+ concentration is monitored with a fluorescent plate reader FLIPR (Molecular Devices).
Calcium Flux Assays (FLIPR) with Cells Expressing Bradykinin B1 Receptor Calcium Flux Assay (FLIPR) with Recombinant Cells for Bradykinin B1 Receptor Antagonist, Either in the Presence (hB1 IC50) or Absence (hB1 free IC50) of 0.1% Bovine Serum Albumin (BSA) in Assay Buffer
CHO-K1 cell line expressing human B1 receptor was purchased from Euroscreen (Gosselies, Belgium, with reference name hB1-D1). The cells were grown in Nutrient Mixture Ham's F12 (Sigma) containing 10% Foetal bovine serum (Sigma) and 400 μg/mL G418 (Sigma), 5 μg/mL puromycin (Sigma).
For the calcium flux assay, 80% confluent cells were detached from the culture vessels with Versene (Gibco), and seeded into 384-well plates (Cell binding Surface; Corning, N.Y.; #3683) at a density of 15,000 cells per well. Cells were seeded in a volume of 50 μL in medium without antibiotics and incubated overnight in a humidified atmosphere with 5% CO2 at 37° C. […] The calcium indicator loaded cells were incubated at 37° C. for 2 hrs. Extracellular dye was then removed and each well was filled with 45 μL of assay buffer. Cell plates were kept in dark until used. Example compounds were assayed at 8 concentrations in triplicate. Serial 10-fold dilutions in 100% DMSO were made at a 100-times higher concentration than the final concentration, and then diluted 1:10 in assay buffer. 5 μL of each diluted compound was added to the well of cell plates (yielding final concentration with 1% DMSO), and incubated for 30 min at 28° C. before the addition of B1 receptor agonist on the FLIPR instrument.
Agonist plates contained the agonist Lys-(Des-Arg)-Bradykinin (Bachem, Brackley) at 3.5×EC90 in assay buffer with 1% DMSO. The addition of agonist 20 μl per well to the assay plate was carried out on the FLIPR instrument while continuously monitoring Ca^2+-dependent fluorescence at 538 nm. A peptide antagonist Lys-(Des-Arg-Leu)-Bradykinin (Bachem, Brackley) at 20 μM was used to determine the full inhibition as control.
Peak fluorescence was used to determine the response to agonist obtained at each concentration of example compound by the following equation:
% Response=100*(RFU(example compound)−RFU(control)/(RFU(DMSO)−RFU(control)
Control=full inhibition by the peptide antagonist Lys-(Des-Arg-Leu)-Bradykinin at 20 μM
The response values were plotted against the logarithm of the compound concentrations. The compounds were tested in triplicates per plate and mean values were plotted in Excel XLfit to determine IC50 values, percentage of maximal inhibition and the Hill slopes.
For orientation: Calcium flux is commonly read through the fluorescence of an indicator in the cells.

The mark [1] stands for this setting: presence of 0.1% BSA in assay buffer, read-out: hB1 IC50.
Where [2] appears, read: absence of 0.1% BSA in assay buffer, read-out: hB1 free IC50.

The term IC50 denotes the concentration that inhibits the measured activity by half.

Where two headings read alike, the source gives them in different places.

Take `COCc1ccc(-c2ccc(NC(=O)C3CC3c3ccc(Cl)cc3)cc2-c2nnn[nH]2)cc1C` (racemic) [Example 32, 2-(4-chlorophenyl)-N-[4′-(methoxymethyl)-3′-methyl-2-(1H-tetrazol-5-yl)biphenyl-4-yl]cyclopro-panecarboxamide]: the IC50 under setting [1] was 22 nM.

As to `COCc1ccc(-c2ccc(NC(=O)C3CC3C3CCCCC3)cc2-c2nnn[nH]2)cc1C` (racemic) [Example 33, 2-cyclohexyl-N-[4′-(methoxymethyl)-3′-methyl-2-(1H-tetrazol-5-yl)biphenyl-4-yl]cyclo-propanecarboxamide], under setting [1], the IC50 is 28 nM.

As for `COc1ccc(-c2ccc(NC(=O)C3CC3c3ccc(Cl)cc3)cc2-c2nnn[nH]2)cc1C` (racemic) [Example 34, 2-(4-chlorophenyl)-N-[4′-methoxy-3′-methyl-2-(1H-tetrazol-5-yl)biphenyl-4-yl]cyclopropanecarbox-amide], under setting [1], the IC50 turned out to be 232 nM.

In the case of `COc1ccc(-c2ccc(NC(=O)C3CC3c3ccc(C)cc3)cc2-c2nnn[nH]2)cc1` (racemic) [Example 36, N-[4′-methoxy-2-(1H-tetrazol-5-yl)biphenyl-4-yl]-2-(4-methylphenyl)cyclopro-panecarboxamide], the IC50 under setting [1] came to 662 nM.

In the case of `COc1ccc(-c2ccc(NC(=O)C3CC3C3CCCCC3)cc2-c2nnn[nH]2)cc1` (racemic) [Example 37, 2-cyclohexyl-N-[4′-methoxy-2-(1H-tetrazol-5-yl)biphenyl-4-yl]cyclopropanecarbox-amide], the IC50 under setting [1] was determined as 469 nM.

On to `COCc1ccc(-c2ccc(NC(=O)C3CC3c3ccc(Cl)cc3)cc2-c2nnn[nH]2)cc1` (racemic) [Example 38, 2-(4-chlorophenyl)-N-[4′-(methoxymethyl)-2-(1H-tetrazol-5-yl)biphenyl-4-yl]cyclopropanecarbox-amide], for which, under setting [1], the IC50 was 1470 nM.

With `COc1ccc(-c2ccc(NC(=O)C3CC3c3ccc(Cl)cc3)cc2-c2nnn[nH]2)cc1Cl` (racemic) [Example 39, N-[3′-chloro-4′-methoxy-2-(1H-tetrazol-5-yl)biphenyl-4-yl]-2-(4-chlorophenyl)cyclopro-panecarboxamide], the IC50 under setting [1] turned out to be 1230 nM.

For the compound `COc1ccc(-c2ccc(NC(=O)C3CC3C3CCCCC3)cc2-c2nnn[nH]2)cc1Cl` (racemic) [Example 40, N-[3′-chloro-4′-methoxy-2-(1H-tetrazol-5-yl)biphenyl-4-yl]-2-cyclohexylcyclopropane-carboxamide], the 50% inhibitory concentration (IC50) under setting [1] amounted to 1030 nM.

For `O=C(Nc1ccc(-c2ccc(OC(F)(F)F)cc2)c(-c2nnn[nH]2)c1)C1CC1c1ccc(Cl)cc1` (racemic) [Example 41, 2-(4-chlorophenyl)-N-[2-(1H-tetrazol-5-yl)-4′-(trifluoro-methoxy)biphenyl-4-yl]cyclopropanecarbox-amide], the concentration for half-maximal inhibition (IC50) under setting [1] worked out at 33 nM.

As for `O=C(Nc1ccc(-c2ccc(OC(F)(F)F)cc2)c(-c2nnn[nH]2)c1)C1CC1C1CCCCC1` (racemic) [Example 42, 2-cyclohexyl-N-[2-(1H-tetrazol-5-yl)-4′-(trifluoro-methoxy)biphenyl-4-yl]cyclopropanecarbox-amide], the IC50 under setting [1] was 31 nM.

Regarding `O=C(Nc1ccc(-n2cc(C(F)(F)F)cn2)c(-c2nnn[nH]2)c1)C1CC1c1ccccc1` (racemic) [Example 43, 2-Phenyl-N-{3-(1H-tetrazol-5-yl)-4-[4-(trifluoromethyl)-1H-pyrazol-1-yl]phenyl}cyclopro-panecarboxamide], the IC50 under setting [2] is 2210 nM.

In the case of `CC(C)(C)c1cnn(-c2ccc(NC(=O)C3CC3c3ccc(Cl)cc3)cc2-c2nnn[nH]2)c1` (racemic) [Example 44, N-[4-(4-tert-butyl-1H-pyrazol-1-yl)-3-(1H-tetrazol-5-yl)phenyl]-2-(4-chlorophenyl)cyclopro-panecarboxamide], the IC50 under setting [2] was found to be 26 nM.

As for `CC(C)(C)c1ccn(-c2ccc(NC(=O)C3CC3c3ccc(Cl)cc3)cc2-c2nnn[nH]2)n1` (racemic) [Example 45, N-[4-(3-tert-butyl-1H-pyrazol-1-yl)-3-(1H-tetrazol-5-yl)phenyl]-2-(4-chlorophenyl)cyclopro-panecarboxamide], under setting [2], the IC50 stood at 463 nM.

`O=C(Nc1ccc(-n2cc(C(F)(F)F)cn2)c(-c2nnn[nH]2)c1)C1CC1c1ccc(Cl)cc1` (racemic) [Example 46, 2-(4-Chlorophenyl)-N-{3-(1H-tetrazol-5-yl)-4-[4-(trifluoromethyl)-1H-pyrazol-1-yl]phenyl}cyclopropane-carboxamide]: the half-inhibitory concentration (IC50) under setting [2] turned out to be 1180 nM.

For `O=C(Nc1ccc(-n2ccc(C(F)(F)F)n2)c(-c2nnn[nH]2)c1)C1CC1c1ccc(Cl)cc1` (racemic) [Example 47, 2-(4-Chlorophenyl)-N-{3-(1H-tetrazol-5-yl)-4-[3-(trifluoromethyl)-1H-pyrazol-1-yl]phenyl}cyclopropane-carboxamide], under setting [2], the IC50 came out at 1220 nM.

Take `COc1ccc(-c2cc(F)c(NC(=O)C3CC3c3cccc(C)c3)cc2-c2nnn[nH]2)cc1OC` (racemic) [Example 53, N-[5-Fluoro-3′,4′-dimethoxy-2-(1H-tetrazol-5-yl)biphenyl-4-yl]-2-(3-methylphenyl)cyclopro-panecarboxamide]: under setting [1], the IC50 came to 16 nM.

Turning to `COc1ccc(-c2cc(F)c(NC(=O)C3CC3c3ccc(Cl)cc3)cc2-c2nnn[nH]2)cc1OC` (racemic) [Example 54, 2-(4-Chlorophenyl)-N-[5-fluoro-3′,4′-dimethoxy-2-(1H-tetrazol-5-yl)biphenyl-4-yl]cyclopro-panecarboxamide], the IC50 under setting [1] worked out at 26 nM.

In the case of `COc1ccc(-c2cc(F)c(NC(=O)C3CC3c3cccc(C)c3)cc2-c2nnn[nH]2)cc1C` (racemic) [Example 56, N-[5-Fluoro-4′-methoxy-3′-methyl-2-(1H-tetrazol-5-yl)biphenyl-4-yl]-2-(3-methylphenyl)cyclopro-panecarboxamide], the IC50 under setting [1] stood at 19 nM.

Regarding `COc1ccc(-c2cc(F)c(NC(=O)C3CC3c3ccc(Cl)cc3)cc2-c2nnn[nH]2)cc1C` (racemic) [Example 57, 2-(4-chlorophenyl)-N-[5-fluoro-4′-methoxy-3′-methyl-2-(1H-tetrazol-5-yl)biphenyl-4-yl]cyclo-propanecarboxamide], the 50% inhibitory concentration (IC50) turned out to be 24 nM under setting [2] and 124 nM under setting [1].

Regarding `COc1ccc(-c2cc(F)c(NC(=O)C3CC3c3ccc(Cl)cc3)cc2-c2nnn[nH]2)cc1` (racemic) [Example 58, 2-(4-Chlorophenyl)-N-[5-fluoro-4′-methoxy-2-(1H-tetrazol-5-yl)biphenyl-4-yl]cyclopropanecarbox-amide], under setting [1], the IC50 came out at 134 nM.

For `COc1ccc(-c2c(F)cc(NC(=O)C3CC3c3cccc(C)c3)cc2-c2nnn[nH]2)cc1OC` (racemic) [Example 59, N-[2-Fluoro-3′,4′-dimethoxy-6-(1H-tetrazol-5-yl)biphenyl-4-yl]-2-(3-methylphenyl)cyclopro-panecarboxamide], the IC50 under setting [1] turned out to be 83 nM.

In the case of `COc1ccc(-c2c(F)cc(NC(=O)C3CC3C3CCCCC3)cc2-c2nnn[nH]2)cc1OC` (racemic) [Example 60, 2-Cyclohexyl-N-[2-fluoro-3′,4′-dimethoxy-6-(1H-tetrazol-5-yl)biphenyl-4-yl]cyclopro-panecarboxamide], the IC50 under setting [1] was 177 nM.

For the compound `O=C(Nc1cc(F)c(-c2ccc(C(F)(F)F)nc2)c(-c2nnn[nH]2)c1)C1CC1c1ccc(Cl)cc1` (racemic) [Example 62, 2-(4-chlorophenyl)-N-{3-fluoro-5-(1H-tetrazol-5-yl)-4-[6-(trifluoromethyl)pyridin-3-yl]phenyl}cyclopro-panecarboxamide], under setting [2], the IC50 stood at 947 nM.
